Data from US8273775B2, “Non-steroidal brassinosteroid mimetic” (priority 2006, dated 2012).

Tests used:
[1] = tested on: bri1-116 plants grown in soil; assay: Rescue of soil-grown mutants by watering; assay type: in vivo, Arabidopsis thaliana; conditions: watered with 2 ml 300 μM ABRASIN per day
Protocol: FIG. 15: Phenotype rescue of brit-116 and cpd mutants. (A.) The mutant and Col-0 plants were germinated on MS+DMSO medium till day 5 and afterwards transferred on MS supplemented with DMSO, 1 μM BL or 30 μM ABRASIN until day 11. Treatment with BL rescues the cpd mutant phenotype but not bri1-116 while ABRASIN rescues both mutants. […] BL: brassinolide; BIK: abrasin.
Col-0, the null BR signaling bri1-116 (Friedrichsen et al., 2000) and BR biosynthetic cpd (Szekeres et al., 1996) mutants were subjected to phenotype rescue analysis by treatments with BL and ABRASIN. As a negative control, dimethylsulfoxide (DMSO) was used. Plants were germinated in vitro for 5 days on ½ MS containing DMSO medium and from day 6th to day 11th they were transferred on medium supplemented with BL (10 nM, 100 nM, 1000 nM), ABRASIN (5 μM, 10 μM, 30 μM) or DMSO. Cotyledons and leaves were collected for flowcytometric analysis at the 11th day (i.e. 6 days of treatments). Samples for β-glucuronidase (GUS) assay were taken on day 6th (i.e. 1 day treatments), 8th (i.e. 3 days treatments), 10th (i.e. 5 days treatments). Rescue of soil-grown mutants at different growth stages was checked by watering bri1-116 and cpd mutants with either BL or 2 ml 300 μM ABRASIN per day.

ASKθ (group III) = target: T1, ASKθ (group III) (Arabidopsis thaliana, UniProt Q96287); assay: ASK kinase assay with MBP as substrate, ASKθ; assay type: biochemical; conditions: 10 μM abrasin; read-out: residual activity
T1 sequence (Q96287 1-472): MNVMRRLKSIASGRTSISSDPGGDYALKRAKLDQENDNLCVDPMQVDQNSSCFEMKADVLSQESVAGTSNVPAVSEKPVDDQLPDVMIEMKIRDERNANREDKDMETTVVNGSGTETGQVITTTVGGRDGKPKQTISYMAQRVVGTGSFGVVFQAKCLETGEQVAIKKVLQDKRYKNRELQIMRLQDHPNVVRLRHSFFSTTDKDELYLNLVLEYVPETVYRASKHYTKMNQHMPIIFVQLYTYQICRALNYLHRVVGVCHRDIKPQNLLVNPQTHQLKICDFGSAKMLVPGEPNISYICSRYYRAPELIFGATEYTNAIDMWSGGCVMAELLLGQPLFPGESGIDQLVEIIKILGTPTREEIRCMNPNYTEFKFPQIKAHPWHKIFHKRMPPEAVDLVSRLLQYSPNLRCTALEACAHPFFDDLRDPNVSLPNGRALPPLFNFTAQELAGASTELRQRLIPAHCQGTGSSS
Protocol: (§1) Coomassie staining was used as a loading control. b, Autoradiography of kinase assays with nine ASKs with MBP as a substrate in the presence or absence of 10 μM abrasin.
(§2) For in vitro kinase assays, MBP, MBP-BES1, and MBP-bes1 (20 ng each) were incubated with GST-BIN2 or GST-BRI1 kinase (200 ng each) in 20 μl of kinase buffer (20 mM Tris [pH 7.5], 100 mM NaCl, and 12 mM MgCl2) and 10 μCi ^32P-γATP. After incubation at 37° C. for 40 min, the reactions were stopped by adding 20 μl of 2×SDS buffer and boiling at 94° C. for 5 min. Proteins were resolved by a PAGE gel and phosphorylation was detected by exposing the dried gel to X-ray film. Proteins from 35S::bes1-GFP transgenic plants were used for phosphatase (CIP) treatments as described (Fankhauser et al., 1999).
(§3) Besides BIN2, nine additional GSK-3 kinases (also designated ASKs for Arabidopsis SHAGGY-related kinases) divided into four subgroups (I-IV) have been identified in Arabidopsis (Jonak and Hirt, 2002; Yoo et al. 2006). To determine the specificity of abrasin, its effect on the kinase activity of all ASKs was analyzed with myelin basic protein (MBP) as a general substrate.

ASKβ (group III) = target: T2, ASKβ (group III) (Arabidopsis thaliana, UniProt O23145); assay: ASK kinase assay with MBP as substrate, ASKβ; assay type: biochemical; conditions: 10 μM abrasin
T2 sequence (O23145 1-431): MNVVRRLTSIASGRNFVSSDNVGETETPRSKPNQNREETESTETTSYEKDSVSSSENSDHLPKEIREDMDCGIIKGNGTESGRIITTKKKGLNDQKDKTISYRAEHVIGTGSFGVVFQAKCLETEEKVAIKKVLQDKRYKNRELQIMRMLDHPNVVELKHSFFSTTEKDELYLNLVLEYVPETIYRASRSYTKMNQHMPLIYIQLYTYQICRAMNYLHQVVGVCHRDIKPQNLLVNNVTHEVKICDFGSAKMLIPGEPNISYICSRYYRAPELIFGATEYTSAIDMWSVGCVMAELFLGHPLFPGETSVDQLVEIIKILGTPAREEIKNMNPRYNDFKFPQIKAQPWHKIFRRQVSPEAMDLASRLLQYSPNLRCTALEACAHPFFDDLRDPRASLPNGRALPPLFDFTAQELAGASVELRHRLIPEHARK
Protocol: as §1, §2, §3

[2] = tested on: cpd, det2-1, bri1-116 and bri1-301 mutants; assay: Hypocotyl-elongation assay of dark-grown BR mutants; assay type: in vivo, Arabidopsis thaliana; conditions: grown in the dark, 50 μM abrasin
Protocol: FIG. 6: Rescue of dark-grown BL mutants after treatment with 50 μM of abrasin (I5).
For further phenotypical analysis, all plants were grown on vertically oriented square plates (Greiner Labortechnik, Austria) with solid medium derived from standard Murashige and Skoog medium under the same conditions. For the hypocotyl-elongation assay, plants were grown in the dark at 22° C. under the same conditions.

AtMPK6 = AtMPK6 (Arabidopsis thaliana, UniProt Q39026); assay: Kinase assay with AtMPK6 and MBP as substrate; assay type: biochemical; conditions: 10 μM abrasin
Chain of AtMPK6 (Q39026 whole entry): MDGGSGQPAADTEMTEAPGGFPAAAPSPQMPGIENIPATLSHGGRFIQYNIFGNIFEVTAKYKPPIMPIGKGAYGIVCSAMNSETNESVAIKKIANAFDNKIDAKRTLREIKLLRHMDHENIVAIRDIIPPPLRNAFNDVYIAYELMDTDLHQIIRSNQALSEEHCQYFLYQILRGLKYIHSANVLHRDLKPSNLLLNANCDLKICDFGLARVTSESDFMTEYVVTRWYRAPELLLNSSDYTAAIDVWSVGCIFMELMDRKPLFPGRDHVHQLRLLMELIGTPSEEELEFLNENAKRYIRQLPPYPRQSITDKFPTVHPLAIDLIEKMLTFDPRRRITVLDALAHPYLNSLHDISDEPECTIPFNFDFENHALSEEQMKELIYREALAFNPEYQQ
Protocol: Coomassie staining was used as a loading control. b, Autoradiography of kinase assays with nine ASKs with MBP as a substrate in the presence or absence of 10 μM abrasin. The second member of group IV, ASKκ, had no kinase activity and was not included in the analysis. c, Autoradiography of kinase assays with AtMPK4, AtMPK6 and MBP as a substrate (left) and with AtAUR1 kinase and histone H3 as a substrate (right) in the presence or absence of 10 μM abrasin.
as §2, with “Proteins from 35S::bes1-GFP transgenic plants were used for phosphatase (CIP) treatments as described (Fankhauser et al., 1999).” left out
as §3, with “substrate. […]” for “substrate.”

`O=C(O)CCC(=O)Nc1ccc(Br)cn1` [abrasin, 4-[(5-bromo-2-pyridinyl)amino]-4-oxobutanoic acid] was tested, and the “phenotype change of soil-grown mutant” value [1] was “sufficient to slightly change the phenotype of 1 month-old bri1-116 plants in a week”, the remaining activity at 10 µM (ASKθ (group III)) was 20% and the “effect on kinase activity” value (ASKβ (group III)) was “not affected”. For the same compound, the “hypocotyl length of dark-grown mutants” value [2] was “all mutant lines had hypocotyls of normal length” and the “effect on kinase activity” value (AtMPK6) was “no effect”.
